The molecules below were run against Replicase polyprotein 1ab (Severe acute respiratory syndrome-related coronavirus, UniProt P0C6X7) (assay: Inhibition of GST-tagged SARS coronavirus 3C-like protease by FRET assay).
In the case of CC1CCN(S(=O)(=O)c2ccc3c(c2)C(=O)C(=O)N3Cc2ccc3ccccc3c2)CC1, the IC50 is reported as 17.8 µM. For CC1CC(C)CN(S(=O)(=O)c2ccc3c(c2)C(=O)C(=O)N3)C1 (stereo not drawn), the IC50 was 4.3 µM. Molecule O=C1Nc2ccc(S(=O)(=O)N3CCN(c4ccc(F)cc4)CC3)cc2C1=O has an IC50 of over 100 µM. CN1C(=O)C(=O)c2cc(S(=O)(=O)N3CCN(CCc4ccccc4)CC3)ccc21 was tested, and the IC50 was 13.9 µM. With CC1CC(C)CN(S(=O)(=O)c2ccc3c(c2)C(=O)C(=O)N3Cc2ccccc2)C1 (stereo not drawn) the IC50 was 4.7 µM. O=C1C(=O)N(Cc2ccccc2)c2ccc(S(=O)(=O)N3CCCCC3)cc21 showed an IC50 of 14 µM. CC1CCN(S(=O)(=O)c2ccc3c(c2)C(=O)C(=O)N3C)CC1 was tested, and the IC50 was 1.04 µM. O=C1Nc2ccc(S(=O)(=O)N3CCCCC3)cc2C1=O gave an IC50 of 4.45 µM. O=C1C(=O)N(Cc2ccccc2)c2ccc(S(=O)(=O)N3CCOCC3)cc21 showed an IC50 of 13.9 µM. CN1C(=O)C(=O)c2cc(S(=O)(=O)N3CCN(c4ccccn4)CC3)ccc21 showed an IC50 of 5.52 µM. O=C1Nc2ccc(S(=O)(=O)N3CCN(C(=O)c4ccco4)CC3)cc2C1=O showed an IC50 of 10.1 µM. In the case of CN1CCN(S(=O)(=O)c2ccc3c(c2)C(=O)C(=O)N3C)CC1, the IC50 is reported as 11.8 µM. O=C1C(=O)N(Cc2ccc3ccccc3c2)c2ccc(S(=O)(=O)N3CCOCC3)cc21 showed an IC50 of 39.9 µM. In the case of CN1CCN(S(=O)(=O)c2ccc3c(c2)C(=O)C(=O)N3Cc2ccc3ccccc3c2)CC1, the IC50 is reported as 82.9 µM. In the case of CN1CCN(S(=O)(=O)c2ccc3c(c2)C(=O)C(=O)N3Cc2ccccc2)CC1, the IC50 is reported as 67.2 µM. CC1CCN(S(=O)(=O)c2ccc3c(c2)C(=O)C(=O)N3)CC1 gave an IC50 of 1.18 µM. Molecule O=C1Nc2ccc(S(=O)(=O)N3CCN(CCc4ccccc4)CC3)cc2C1=O has an IC50 of 34.9 µM. O=C1Nc2ccc(S(=O)(=O)N3CCOCC3)cc2C1=O showed an IC50 of 12.7 µM. COc1cc(CN2CCN(S(=O)(=O)c3ccc4c(c3)C(=O)C(=O)N4)CC2)cc(OC)c1OC gave an IC50 of 32.1 µM. For CC1CCN(S(=O)(=O)c2ccc3c(c2)C(=O)C(=O)N3Cc2ccccc2)CC1, the IC50 was 1.69 µM. Molecule O=C1Nc2ccc(S(=O)(=O)N3CCN(c4ccccn4)CC3)cc2C1=O has an IC50 of 51.3 µM. Molecule CC1CC(C)CN(S(=O)(=O)c2ccc3c(c2)C(=O)C(=O)N3C)C1 (stereo not drawn) has an IC50 of 2.82 µM. Molecule CN1CCN(S(=O)(=O)c2ccc3c(c2)C(=O)C(=O)N3)CC1 has an IC50 of 76.7 µM. Work on O=C1Nc2ccc(S(=O)(=O)N3CCN(c4cccc(C(F)(F)F)c4)CC3)cc2C1=O yielded an IC50 of over 100 µM. For CN1C(=O)C(=O)c2cc(S(=O)(=O)N3CCOCC3)ccc21, the IC50 was 9.91 µM. With O=C1Nc2ccc(S(=O)(=O)N3CCN(Cc4cccc(Cl)c4)CC3)cc2C1=O the IC50 was 31.7 µM. CC1CCCCN1S(=O)(=O)c1ccc2c(c1)C(=O)C(=O)N2 (stereo not drawn) was tested, and the IC50 was 2.25 µM.

Each molecule was assayed against Replicase polyprotein 1ab (Severe acute respiratory syndrome-related coronavirus) (UniProt P0C6X7) (assay: Inhibition of GST-tagged SARS coronavirus 3C-like protease at 1 mM by FRET assay).
With O=C1Nc2ccc(F)cc2C1=O the inhibition was 82.5%. Molecule O=C1Nc2cccc(Br)c2C1=O has an inhibition of 68.4%. Work on O=C1Nc2ccc(I)cc2C1=O yielded an inhibition of 86.7%. Work on COc1ccc2c(c1)C(=O)C(=O)N2 yielded an inhibition of 95.3%. For O=C1Nc2ccc([N+](=O)[O-])cc2C1=O, the inhibition was 94%. For O=C1Nc2ccc(Cl)cc2C1=O, the inhibition was 84.2%. O=C1Nc2ccc(C(=O)O)cc2C1=O was tested, and the inhibition was 44.8%. CC(=O)c1ccc2c(c1)C(=O)C(=O)N2 was tested, and the inhibition was 95.4%. For O=C1Nc2cc3c(cc2C1=O)CCC3, the inhibition was 79.4%. In the case of O=C1Nc2ccc(Br)cc2C1=O, the inhibition is reported as 90.5%. CN1CCN(S(=O)(=O)c2ccc3c(c2)C(=O)C(=O)N3)CC1 gave an inhibition of 98.6%.

— ChEMBL document CHEMBL3098093, “Synthesis, modification and docking studies of 5-sulfonyl isatin derivatives as SARS-CoV 3C-like protease inhibitors” (Bioorg Med Chem, 2014)
